According to ChEMBL document CHEMBL3044682, “QSAR modeling of bifunctional quinolonyl diketo acid derivatives as integrase inhibitors” (Med Chem Res, 2012):

target: Human immunodeficiency virus type 1 integrase (Human immunodeficiency virus 1, UniProt Q7ZJM1); assay: Inhibition of Human immunodeficiency virus 1 integrase strand transfer activity
Sequence (Q7ZJM1 whole entry): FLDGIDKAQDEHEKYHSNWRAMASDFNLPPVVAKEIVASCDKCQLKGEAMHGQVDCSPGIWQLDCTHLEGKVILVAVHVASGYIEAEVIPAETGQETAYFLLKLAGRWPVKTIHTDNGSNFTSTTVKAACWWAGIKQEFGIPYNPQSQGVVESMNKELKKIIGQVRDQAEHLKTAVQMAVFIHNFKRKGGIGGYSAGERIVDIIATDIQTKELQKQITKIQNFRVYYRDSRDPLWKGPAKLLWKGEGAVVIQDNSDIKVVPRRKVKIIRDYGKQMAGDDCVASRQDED

| Structure (SMILES) | IC50 |
| --- | --- |
| CC[C@@H](CO)n1cc(CO)c(=O)c2cc(Cc3ccccc3F)c(OC)cc21 | 7.2 nM |
| Cc1cccc(/C=C/c2ccc3ccc(C(=O)O)c(O)c3n2)c1C | 60.6 nM |
| O=C(O)/C(O)=C/C(=O)c1ccc2[nH]cc(C(=O)/C=C(\O)C(=O)O)c(=O)c2c1 | 430 nM |
| O=C(O)/C(O)=C/C(=O)c1ccc2c(c1)c(=O)c(C(=O)/C=C(\O)C(=O)O)cn2-c1ccccc1 | 12 nM |
| O=C(O)/C(O)=C/C(=O)c1cn(Cc2cccc(F)c2)c2ccccc2c1=O | 31.3 nM |
| O=C(O)/C(O)=C/C(=O)c1ccc2c(c1)c(=O)c(C(=O)O)cn2Cc1ccc(F)cc1 [13, RDS-1607] | 1090 nM |
| CCOC(=O)/C(O)=C/C(=O)c1cn(Cc2cccc(F)c2)c2ccccc2c1=O [RDS-1624] | 326 nM |
